Assay results published in paper PMC4579345 (Journal of acquired immune deficiency syndromes (1999), 2015).
Like-named read-outs stand apart in the source and are kept apart here.

Assays:
[1] = system: HIV-1 RNA; experiment: Maternal HIV RNA at delivery and infant HIV infection status; assay type: in vivo; conditions: median (range)
[2] = Cord blood and maternal plasma darunavir concentrations at delivery; assay type: in vivo, human
[3] = system: wild type HIV; conditions: cited from earlier work
[4] = system: HIV RNA; conditions: cited from earlier work
[5] = cited from earlier work; for Mean decrease in darunavir AUC: third trimester, ref 16 (Colbers, et al)
[6] = mean (95%CI), ref 16 (Colbers, et al), cited from earlier work
[7] = Clinical and laboratory toxicity monitoring of mothers and infants; conditions: human, in vivo
[8] = Ritonavir pharmacokinetic parameters during pregnancy and postpartum; assay type: in vivo, human; conditions: for AUC(0-t): AUC0-12, twice daily dosing; for AUC(0-t) / Cmax: median (interquartile range)
[9] = of 43 subjects, limit 0.09 μg/mL

CC(C)CN(C[C@@H](O)[C@H](Cc1ccccc1)NC(=O)O[C@H]1CO[C@H]2OCC[C@H]21)S(=O)(=O)c1ccc(N)cc1 [darunavir]
HIV-1 RNA at delivery ([1]; Combined N=66): <50 (<50 - 66,142) copies/mL
HIV-1 RNA at delivery ([1]; Once Daily Dosing N=32): <50 (<50 - 35,313) copies/mL
HIV-1 RNA at delivery ([1]; Twice Daily Dosing N=34): 51 (<50 - 66,142) copies/mL
Maternal plasma delivery concentration ([2]; median (range), samples above the limit of quantitation): 1.98 µg/mL
Cord blood samples with concentration below the assay limit of quantitation [2, 9]: 15
Maternal samples with concentration below the assay limit of quantitation [2, 9]: 11
EC50 for wild type HIV [3]: 0.06 μ/mL
Infected infants ([4]; 12 mothers in the Zorrilla study who remained on therapy at delivery, 15 mothers in the Colbers study): no infected infants
Women with HIV RNA below 1000 copies/mL approaching delivery ([4]; once daily dosing, ref 24 (Colbers, et al)): 93%
Subjects with detectable HIV RNA (>50 copies/mL) during pregnancy ([4]; twice daily dosing, ref 15 (Zorrilla, et al)): 3 of 14
Mean decrease in darunavir AUC ([5]; 6 women, twice daily dosing): 34%
Decrease in darunavir AUC ([5]; 14 women dosed twice daily, second and third trimesters, ref 15 (Zorrilla, et al)): 17-24%
Mean decrease in darunavir AUC ([5]; 18 women, once daily dosing): 22%
Free fraction ([6]; 14 women postpartum): 10%
Free fraction ([6]; 19 women in the third trimester): 12%
Subjects indicating side effects of darunavir as a reason for discontinuation [7]: No subjects
Tolerability during pregnancy and postpartum [7]: well tolerated

CC(C)c1nc(CN(C)C(=O)N[C@H](C(=O)N[C@@H](Cc2ccccc2)C[C@H](O)[C@H](Cc2ccccc2)NC(=O)OCc2cncs2)C(C)C)cs1 [ritonavir]
AUC(0-t) ([8]; female, human, plasma, oral, postpartum): 5600 ng·h/mL
AUC(0-t) ([8]; female, human, plasma, oral, second trimester): 3900 ng·h/mL
AUC(0-t) ([8]; female, human, plasma, oral, third trimester): 3800 ng·h/mL
Cmax ([8]; female, human, plasma, oral, Cmax, once daily dosing, postpartum): 640 ng/mL
Cmax ([8]; female, human, plasma, oral, Cmax, twice daily dosing, second trimester): 470 ng/mL
Cmax ([8]; female, human, plasma, oral, Cmax, twice daily dosing, third trimester): 460 ng/mL
Ritonavir exposure during pregnancy ([8]; in vivo): reduced
Cmax ([8]; once daily dosing, second trimester): 290 ng/mL
Cmax ([8]; once daily dosing, third trimester): 270 ng/mL
